Experimental data: patent US12577226B2, “Compounds for treating Huntington's disease” (PTC THERAPEUTICS, INC., priority 2019, dated 2026)

test system: Endogenous Huntingtin Protein (capture with MW1 (expanded polyglutamine) or MAB2166 antibody); assay: Endogenous Huntingtin Protein Assay (ELISA-based Meso Scale Discovery electrochemiluminescence assay); assay type: cell-based; conditions: MSD electrochemiluminescence platform
Summary of the method: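 MSD electrochemiluminescence sandwich immunoassay: plates coated with 1 μg/mL MW1 or MAB2166 capture antibody, samples incubated overnight at 4 °C. Detection with rabbit monoclonal #5656S then SULFO-TAG anti-rabbit (each 0.25 μg/mL, 1 h RT).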

`CC1(C)C[C@H](Oc2ccc(-c3ncc(-n4ccnc4)cc3O)nn2)[C@H](F)C(C)(C)N1` (single isomer, unassigned) [Compound 9, 2-(6-{[(3R,4S)-3-fluoro-2,2,6,6-tetramethylpiperidin-4-yl]oxy}pyridazin-3-yl)-5-(1H-imidazol-1-yl)pyridin-3-ol or 2-(6-{[(3S,4R)-3-fluoro-2,2,6,6-tetramethylpiperidin-4-yl]oxy}pyridazin-3-yl)-5-(1H-imidazol-1-yl)pyridin-3-ol] and `Cc1cnc(Nc2cnc(-c3cnc(N4CCN[C@@H](C5CC5)C4)nn3)c(O)c2)cn1` [Compound 160, 2-{3-[(3S)-3-cyclopropylpiperazin-1-yl]-1,2,4-triazin-6-yl}-5-[(5-methylpyrazin-2-yl)amino]pyridin-3-ol] cannot be ordered by IC50: 100 to 500 nM for the first, at most 100 nM for the second.

`CC(C)[C@H]1CN(c2ncc(-c3ncc(-n4nccn4)cc3O)nn2)CCN1` [Compound 156, 2-{3-[(3S)-3-(propan-2-yl)piperazin-1-yl]-1,2,4-triazin-6-yl}-5-(2H-1,2,3-triazol-2-yl)pyridin-3-ol] and `Cn1cc2cc(-c3cnc(-c4cnc(N5CCN[C@@H](C6CC6)C5)nn4)c(O)c3)cc(F)c2n1` [Compound 158, 2-{3-[(3S)-3-cyclopropylpiperazin-1-yl]-1,2,4-triazin-6-yl}-5-(7-fluoro-2-methyl-2H-indazol-5-yl)pyridin-3-ol] cannot be ordered by IC50: 100 to 500 nM for the first, at most 100 nM for the second.

`CN(c1ccc(-c2ncc(-n3ccnc3)cc2O)nn1)C1CC(C)(C)NC(C)(C)C1` [Compound 15, 5-(1H-imidazol-1-yl)-2-{6-[methyl(2,2,6,6-tetramethylpiperidin-4-yl)amino]pyridazin-3-yl}pyridin-3-ol] and “5-(1H-pyrazol-4-yl)-2-{6-[(3R,5S)-3,4,5-trimethylpiperazin-1-yl]pyridazin-3-yl}pyridin-3-ol and 5-(1H-pyrazol-4-yl)-2-{6-[(3S,5R)-3,4,5-trimethylpiperazin-1-yl]pyridazin-3-yl}pyridin-3-ol [Compound 90]” cannot be ordered by IC50: at most 100 nM for the first, 100 to 500 nM for the second.

`CN(c1cnc(-c2ncc(-n3nccn3)cc2O)nn1)C1CC(C)(C)NC(C)(C)C1` [Compound 161, 2-{6-[methyl(2,2,6,6-tetramethylpiperidin-4-yl)amino]-1,2,4-triazin-3-yl}-5-(2H-1,2,3-triazol-2-yl)pyridin-3-ol] and “5-[(5-methylpyrazin-2-yl)amino]-2-{6-[(3R)-3-(propan-2-yl)piperazin-1-yl]pyridazin-3-yl}pyridin-3-ol and 5-[(5-methylpyrazin-2-yl)amino]-2-{6-[(3S)-3-(propan-2-yl)piperazin-1-yl]pyridazin-3-yl}pyridin-3-ol [Compound 133]” cannot be ordered by IC50: at most 100 nM for the first, at most 100 nM for the second.

“2-(6-{[(3R,4S)-3-fluoro-2,2,6,6-tetramethylpiperidin-4-yl]oxy}pyridazin-3-yl)-5-(4-methyl-1H-imidazol-1-yl)pyridin-3-ol and 2-(6-{[(3S,4R)-3-fluoro-2,2,6,6-tetramethylpiperidin-4-yl]oxy}pyridazin-3-yl)-5-(4-methyl-1H-imidazol-1-yl)pyridin-3-ol [Compound 41]” and “2-{6-[(3S)-3-(propan-2-yl)piperazin-1-yl]pyridazin-3-yl}-5-(1H-pyrazol-4-yl)pyridin-3-ol and 2-{6-[(3R)-3-(propan-2-yl)piperazin-1-yl]pyridazin-3-yl}-5-(1H-pyrazol-4-yl)pyridin-3-ol [Compound 121]” cannot be ordered by IC50: 100 to 500 nM for the first, at most 100 nM for the second.

“5-(2,8-dimethylimidazo[1,2-a]pyridin-6-yl)-2-(6-{[(3R,4S)-3-fluoro-2,2,6,6-tetramethylpiperidin-4-yl]oxy}pyridazin-3-yl)pyridin-3-ol and 5-(2,8-dimethylimidazo[1,2-a]pyridin-6-yl)-2-(6-{[(3S,4R)-3-fluoro-2,2,6,6-tetramethylpiperidin-4-yl]oxy}pyridazin-3-yl)pyridin-3-ol [Compound 44]” and `CC1(C)C[C@@H](Oc2ccc(-c3ncc(-c4cn[nH]c4F)cc3O)nn2)[C@@H](F)C(C)(C)N1` [Compound 40, 5-(5-fluoro-1H-pyrazol-4-yl)-2-(6-{[(3S,4R)-3-fluoro-2,2,6,6-tetramethylpiperidin-4-yl]oxy}pyridazin-3-yl)pyridin-3-ol] cannot be ordered by IC50: at most 100 nM for the first, at most 100 nM for the second.

`C[C@@H]1CN(c2ccc(-c3ncc(/C=C/c4cnn(C)c4)cc3O)nn2)C[C@H](C)N1` [Compound 118, 2-{6-[(3R,5S)-3,5-dimethylpiperazin-1-yl]pyridazin-3-yl}-5-[(E)-2-(1-methyl-1H-pyrazol-4-yl)ethenyl]pyridin-3-ol and 2-{6-[(3S,5R)-3,5-dimethylpiperazin-1-yl]pyridazin-3-yl}-5-[(E)-2-(1-methyl-1H-pyrazol-4-yl)ethenyl]pyridin-3-ol] and `C[C@@H]1CN(c2ccc(-c3ncc(-c4cc(C#N)c5nn(C)cc5c4)cc3O)nn2)C[C@H](C)N1` [Compound 78, 5-(6-{6-[(3R,5S)-3,5-dimethylpiperazin-1-yl]pyridazin-3-yl}-5-hydroxypyridin-3-yl)-2-methyl-2H-indazole-7-carbonitrile and 5-(6-{6-[(3S,5R)-3,5-dimethylpiperazin-1-yl]pyridazin-3-yl}-5-hydroxypyridin-3-yl)-2-methyl-2H-indazole-7-carbonitrile] cannot be ordered by IC50: at most 100 nM for the first, at most 100 nM for the second.

Compared with `CN(c1ccc(-c2ncc(-c3cn[nH]c3)cc2O)nn1)C1CC(C)(C)NC(C)(C)C1` [Compound 2, 2-{6-[methyl(2,2,6,6-tetramethylpiperidin-4-yl)amino]pyridazin-3-yl}-5-(1H-pyrazol-4-yl)pyridin-3-ol], `C[C@@H]1CN(c2ccc(-c3ncc(-c4ccc5ncnn5c4)cc3O)nn2)C[C@H](C)N1` [Compound 94, 2-{6-[(3R,5S)-3,5-dimethylpiperazin-1-yl]pyridazin-3-yl}-5-([1,2,4]triazolo[1,5-a]pyridin-6-yl)pyridin-3-ol and 2-{6-[(3S,5R)-3,5-dimethylpiperazin-1-yl]pyridazin-3-yl}-5-([1,2,4]triazolo[1,5-a]pyridin-6-yl)pyridin-3-ol] is higher in IC50: at most 100 nM for the first, 500 to 1000 nM for the second. The first is the more potent here.

`[2H]C([2H])([2H])Oc1cc(-c2cnc(-c3ccc(N[C@@H]4CC(C)(C)NC(C)(C)[C@@H]4F)nn3)c(O)c2)ncn1` [Compound 25, 2-(6-{[(3R,4R)-3-fluoro-2,2,6,6-tetramethylpiperidin-4-yl]amino}pyridazin-3-yl)-5-{6-[(^2H3)methyloxy]pyrimidin-4-yl}pyridin-3-ol] and `Cc1cnc(Nc2cnc(-c3cnc(N4CCN[C@@H](C(C)C)C4)nn3)c(O)c2)cn1` [Compound 154, 5-[(5-methylpyrazin-2-yl)amino]-2-[3-[(3S)-3-(propan-2-yl)piperazin-1-yl]-1,2,4-triazin-6-yl}pyridin-3-ol] cannot be ordered by IC50: at most 100 nM for the first, at most 100 nM for the second.

`CC1(C)CC(Oc2ccc(-c3ncc(-c4nccs4)cc3O)nn2)CC2(CC2)N1` (stereo not drawn) [Compound 79, 2-{6-[(5,5-dimethyl-4-azaspiro[2.5]octan-7-yl)oxy]pyridazin-3-yl}-5-(1,3-thiazol-2-yl)pyridin-3-ol] and `CC1(C)CC(Oc2ccc(-c3ncc(-n4cncn4)cc3O)nn2)CC(C)(C)N1` [Compound 61, 2-{6-[(2,2,6,6-tetramethylpiperidin-4-yl)oxy]pyridazin-3-yl}-5-(1H-1,2,4-triazol-1-yl)pyridin-3-ol] cannot be ordered by IC50: at most 100 nM for the first, at most 100 nM for the second.

With `CC1(C)CC(Oc2ccc(-c3ncc(-c4cn[nH]c4)cc3O)nn2)CC2(CC2)N1` (stereo not drawn) [Compound 27, 2-{6-[(5,5-dimethyl-4-azaspiro[2.5]octan-7-yl)oxy]pyridazin-3-yl}-5-(1H-pyrazol-4-yl)pyridin-3-ol] the IC50 was at most 100 nM.
